Test: in vitro
Details: human, hela cells, % viability

| Structure (SMILES) | viability at 28.5 h, 10 µM [%] |
| --- | --- |
| CCC(NC(=O)CCOC)c1cn2cccnc2n1 (centres unmarked) [CBK306560] | 88.2 |
| COc1ccccc1CNC(=O)c1ccc(Cl)c(S(=O)(=O)N2CCOCC2)c1 [CBK267060] | 69.3 |
| CC(C)(CN1CCOCC1)NC(=O)c1cnc2cc(C(F)(F)F)ccc2c1O [CBK107429] | 102 |
| Cc1cc(=O)n2c3c(cc(S(=O)(=O)NC4CC4)cc13)CC2 [CBK218959] | 95.9 |
| Oc1cccc(/C=N/n2c(S)nnc2-c2ccncc2)c1 [CBK265300] | 109 |
| O=C(c1cccc(F)c1)N1CCC(c2n[nH]c3ncccc23)CC1 [CBK284907] | 109 |
| CCNC(=O)N1CC2(CCN(CCOc3ccc(OC)cc3)CC2)c2ccccc21 [CBK144600T] | 98.4 |
| Cn1nc(C2CCCC2)cc1[C@H]1CN2CC[C@H]1C[C@@H]2CNC(=O)N1CCOCC1 [CBK288740] | 83.4 |
| CC(C)N1CCC(=NNC(=O)c2cc(O)c(O)c(O)c2)CC1 [CBK262626] | 117 |
| Cc1cc(CSc2cccc(F)c2)no1 [CBK002916] | 97 |
| O=S(=O)(Nc1ccc2nsnc2c1)c1ccc(Br)cc1C(F)(F)F [CBK062233] | 115 |
| O=C(O)c1nnn(-c2ccccc2)c1-c1ccncc1 [CBK288041] | 95.1 |
| S=c1nc(-c2ccco2)n(Cc2ccccc2)c(=S)n1/C(=N/Cc1ccccc1)c1ccco1 [CBK223550] | 108 |
| c1ccc(N2CCN(c3cccc(-c4ccc5c(c4)OCO5)n3)CC2)nc1 [CBK036851] | 104 |
| COc1ccc(-c2cc(NCc3cc(OC)c(OC)c(OC)c3)ncn2)cc1 [CBK091184] | 90 |
| COc1ccccc1CC(c1ccccc1)C1CN(C)CCO1 (centres unmarked) [CBK009925C] | 116 |
| CC(C)Nc1cc(SCc2ccc(F)cc2)ncn1 [CBK107158] | 93.9 |
| O=C(c1cccs1)N1CCC[C@H]1[C@H](O)c1nccs1 [CBK284285] | 92.1 |
| Cc1c(-c2ccnc(N3CCOCC3)n2)cnc2nc(-c3ccncc3)nn12 [CBK288551] | 98.6 |
| Cc1ccc(CN2CCCC3(C/C=C/COc4ccccc4C(=O)NCCNC3=O)C2)cn1 (centres unmarked) [CBK292022] | 94 |
| O=C(COc1ccccc1[N+](=O)[O-])Nc1cc(C(=O)O)cc(C(=O)O)c1 [CBK263983] | 93.9 |
| Nc1nn2c(c1Cc1c(Cl)cccc1Cl)OC(=O)CCC2=O [CBK093439] | 113 |

| Structure (SMILES) | viability at 28.5 h, 10 µM [%] |
| --- | --- |
| COc1ccc(C(C)C)cc1-c1cncc(NCC(C)(C)CO)n1 [CBK065206] | 106 |
| O=C(Cn1cnc2ccccc21)N1CCC(c2ccccc2)C1 (centres unmarked) [CBK281845] | 84.5 |
| CC(C)Nc1nccnc1Sc1nc[nH]n1 [CBK115205] | 97.5 |
| COc1ccc(-c2nnc(SCc3csc(Nc4ccccc4)n3)n2-c2ccccc2)cc1 [CBK265205] | 89.1 |
| O=C(N[C@@H]1CCOC[C@H]1Oc1ccc(CO)cc1)c1ccc(F)cc1 [CBK306571] | 112 |
| O=C(O)c1cccnc1SCc1cc2c(cc1Cl)OCO2 [CBK287178] | 93.9 |
| CC(C)n1ccnc1CNc1cccc(OCC(=O)N2CCCC2)c1 [CBK305377] | 97 |
| O=C(O)CCCCCNC(=S)Nc1cccc(Cl)c1 [CBK288446] | 88.1 |
| O=C1c2ccccc2C(=O)c2c1cccc2S(=O)(=O)N1CCN(C(=O)C2CCCO2)CC1 (centres unmarked) [CBK200038] | 40.5 |
| O=C(NCCCN1CCOCC1)c1c(Cl)cccc1Cl [CBK263631] | 93 |
| O=C(O)/C=C/c1cccc(-c2cnc(N3CCOCC3)c3nccn23)c1 [CBK091263] | 104 |
| CC(C)(C)c1csc(Nc2ncc(C(F)(F)F)cc2Cl)n1 [CBK021513] | 77.5 |
| Cc1cn(C(C)(C)C(=O)N2CCOCC2)nc1-c1ccccc1Cl [CBK005206] | 85.9 |
| Cc1cc(C)nc(Nc2n[nH]c(-c3ccc(NC(=O)Nc4ccccc4)cc3)n2)n1 [CBK267076] | 92.7 |
| O=S1(=O)NC=Nc2ccccc21 [CBK028171] | 112 |
| CC(=O)N(C)c1ccc(NC(=O)c2ccccc2C(=O)O)cc1 [CBK270693] | 97.9 |
| COc1cc(-c2nnc(SCC(=O)O)n2-c2ccccc2)cc(OC)c1OC [CBK131695] | 104 |
| Cc1cc2occ(CC(=O)NCc3cc(C4CC4)[nH]n3)c2cc1C [CBK282576] | 87.1 |
| CCSc1nc(=O)c2c(n1C)NC(=O)CC2c1ccccc1 (centres unmarked) [CBK307541] | 107 |
| CC(C)CNc1ccc(-c2cccc(N(C)C)c2)cn1 [CBK037603] | 76.9 |
| CC1CCCCN1CCNC(=O)c1ccc(Cn2c(=S)[nH]c3ccccc3c2=O)cc1 (centres unmarked) [CBK265674] | 96 |
| CCCc1[nH]nc(O)c1CC1CC1 [CBK081129] | 110 |

| Structure (SMILES) | viability at 28.5 h, 10 µM [%] |
| --- | --- |
| COC(=O)c1ccc(C(=O)OC)c(NC(=O)C2CCCCC2C(=O)O)c1 (centres unmarked) [CBK265422] | 88 |
| Cc1cc(Cl)ccc1OCC(=O)Nc1nnc[nH]1 [CBK287940] | 86.3 |
| O=C(O)C1CCN(C(=O)CCC(=O)N2CCN(c3ccccc3)CC2)CC1 [CBK286896] | 93.9 |
| CC(C)[C@@H](CO)Nc1nc(-c2ccc3ccccc3c2)cn2ccnc12 [CBK037445] | 85.8 |
| COc1ccccc1CN1CCc2[nH]c(=S)[nH]c(=O)c2C1 [CBK288495] | 104 |
| Cc1n[nH]c(C)c1Sc1ccccc1/N=C/c1ccccc1O [CBK262068] | 93 |
| N#Cc1ccc(-c2cc(N3CCN(C(=O)c4ccco4)CC3)ncn2)cc1 [CBK037813] | 98.2 |
| FC(F)(F)c1cccc(-c2cn3ccnc3c(NCc3ccncc3)n2)c1 [CBK066632] | 97.8 |
| O=[N+]([O-])c1ccc(Cl)c(C2N(Cc3ccccc3)CCN2Cc2ccccc2)c1 [CBK261601] | 93.4 |
| Cc1ccc2[nH]c3nc(N/N=C/c4ccc(-c5cccc([N+](=O)[O-])c5)o4)nnc3c2c1 [CBK262365] | 106 |
| N#CCCCN1CCN(c2nccnc2OCc2ccc(Cl)c(Cl)c2)CC1 [CBK083086T] | 94 |
| COC1C(O)C(CO)OC1n1cnc2c(=O)[nH]c(N)nc21 (centres unmarked) [CBK201324] | 96.2 |
| Cc1ccc(S(=O)(=O)OCCOS(=O)(=O)c2ccc(C)cc2)cc1 [CBK260986] | 96.2 |
| COC(=O)c1ccc2cccnc2c1O [CBK017876] | 90.9 |
| O=C(CCn1cnc2ccccc2c1=O)Nc1ccc(Cl)c(Cl)c1 [CBK266738] | 89.6 |
| CC(C)C(=O)Nc1cc2cccnc2c(-c2ccccc2)n1 [CBK081287] | 92.2 |
| O=C(O)CSc1nc2ccccc2n1CC(=O)O [CBK267128] | 102 |
| O=C(CSc1nnc(-c2ccccc2)[nH]1)c1cccc([N+](=O)[O-])c1 [CBK263287] | 91 |
| NC(=O)c1ccccc1NC(=O)CN1CCN(Cc2cccc(Cl)c2)CC1 [CBK270320] | 103 |
| Cc1nc2nc(N)nn2c(C)c1CCC(=O)NCc1ccccc1F [CBK305860] | 77.6 |

Same assay, conditions: human, hela cells, % viability, bulk resorufin, single well

| Structure (SMILES) | viability at 28.5 h, 10 µM [%] |
| --- | --- |
| Cc1ccc(Cl)cc1N1C(=O)NC(=O)C(CCc2ccccn2)(CCc2ccccn2)C1=O [CBK268838] | 98.6 |

From PMC12040169 (PLOS Biology, 2025)
